# Assay results: PubChem BioAssay (NCI)
#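 How tested: cells in 96-well plates exposed to compound for 48 hours at five concentrations. TGI denotes the concentration required for complete inhibition of growth.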
# Columns and labels:
# Assay in all cases: inhibition of tumour cell growth, NCI panel, 48 h
# HOP-92 NSCLC = system: HOP-92 NSCLC
# SK-MEL-28 melanoma = system: SK-MEL-28 melanoma
# SR leukemia = system: SR leukemia
# SNB-75 CNS = system: SNB-75 CNS
# RXF 393 renal = system: RXF 393 renal
# ACHN renal = system: ACHN renal
# OVCAR-5 ovarian = system: OVCAR-5 ovarian
# SF-295 CNS = system: SF-295 CNS
# OVCAR-3 ovarian = system: OVCAR-3 ovarian
# CCRF-CEM leukemia = system: CCRF-CEM leukemia
# SK-MEL-2 melanoma = system: SK-MEL-2 melanoma
# OVCAR-4 ovarian = system: OVCAR-4 ovarian
# KM12 colon = system: KM12 colon
# NCI-H226 lung = system: NCI-H226 lung
# COLO 205 colon = system: COLO 205 colon
# MDA-N = system: MDA-N
# A498 renal = system: A498 renal
# SF-268 CNS = system: SF-268 CNS
# SK-OV-3 ovarian = system: SK-OV-3 ovarian
# A549 NSCLC = system: A549 NSCLC
# UACC-257 melanoma = system: UACC-257 melanoma
# SW-620 colon = system: SW-620 colon
# HCT-116 colon = system: HCT-116 colon
# EKVX NSCLC = system: EKVX NSCLC
# HOP-62 NSCLC = system: HOP-62 NSCLC
# NCI-H460 lung = system: NCI-H460 lung
# TK-10 renal = system: TK-10 renal
# 786-0 renal = system: 786-0 renal
# SK-MEL-5 melanoma = system: SK-MEL-5 melanoma
# BT-549 breast = system: BT-549 breast
# LOX IMVI melanoma = system: LOX IMVI melanoma
# NCI-H23 lung = system: NCI-H23 lung
# OVCAR-8 ovarian = system: OVCAR-8 ovarian
# U251 CNS = system: U251 CNS
# MOLT-4 leukemia = system: MOLT-4 leukemia
# UACC-62 melanoma = system: UACC-62 melanoma
# HT29 colon = system: HT29 colon
# DU-145 prostate = system: DU-145 prostate
# MCF7 breast = system: MCF7 breast
# NCI-H522 lung = system: NCI-H522 lung
# SF-539 CNS = system: SF-539 CNS
# HL-60(TB) leukemia = system: HL-60(TB) leukemia
# K-562 leukemia = system: K-562 leukemia
# HCC-2998 colon = system: HCC-2998 colon
# RPMI-8226 leukemia = system: RPMI-8226 leukemia
# M14 melanoma = system: M14 melanoma
# SNB-19 CNS = system: SNB-19 CNS
# MDA-MB-435 = system: MDA-MB-435
# PC-3 prostate = system: PC-3 prostate
# MALME-3M melanoma = system: MALME-3M melanoma
# CAKI-1 renal = system: CAKI-1 renal
# MDA-MB-231 breast = system: MDA-MB-231 breast
# HS 578T breast = system: HS 578T breast
# IGROV1 ovarian = system: IGROV1 ovarian
# HCT-15 colon = system: HCT-15 colon
# SN12C renal = system: SN12C renal
# T-47D breast = system: T-47D breast
# UO-31 renal = system: UO-31 renal
smiles,measurement,setting,value
O=C1OC(c2ccc([N+](=O)[O-])cc2)=N/C1=C\c1ccc(Cl)cc1,TGI,HOP-92 NSCLC,> 100 µM
same,TGI,SK-MEL-28 melanoma,> 100 µM
same,TGI,SR leukemia,> 100 µM
same,TGI,SNB-75 CNS,> 100 µM
same,TGI,RXF 393 renal,> 100 µM
same,TGI,ACHN renal,> 100 µM
same,TGI,OVCAR-5 ovarian,> 100 µM
same,TGI,SF-295 CNS,> 100 µM
same,TGI,OVCAR-3 ovarian,> 100 µM
same,TGI,CCRF-CEM leukemia,> 100 µM
same,TGI,SK-MEL-2 melanoma,> 100 µM
same,TGI,OVCAR-4 ovarian,> 100 µM
same,TGI,KM12 colon,> 100 µM
same,TGI,NCI-H226 lung,> 100 µM
same,TGI,COLO 205 colon,> 100 µM
same,TGI,MDA-N,> 100 µM
same,TGI,A498 renal,> 100 µM
same,TGI,SF-268 CNS,> 100 µM
same,TGI,SK-OV-3 ovarian,> 100 µM
same,TGI,A549 NSCLC,> 100 µM
same,TGI,UACC-257 melanoma,> 100 µM
same,TGI,SW-620 colon,> 100 µM
same,TGI,HCT-116 colon,> 100 µM
same,TGI,EKVX NSCLC,> 100 µM
same,TGI,HOP-62 NSCLC,> 100 µM
same,TGI,NCI-H460 lung,> 100 µM
same,TGI,TK-10 renal,> 100 µM
same,TGI,786-0 renal,> 100 µM
same,TGI,SK-MEL-5 melanoma,> 100 µM
same,TGI,BT-549 breast,> 100 µM
same,TGI,LOX IMVI melanoma,> 100 µM
same,TGI,NCI-H23 lung,> 100 µM
same,TGI,OVCAR-8 ovarian,> 100 µM
same,TGI,U251 CNS,> 100 µM
same,TGI,MOLT-4 leukemia,> 100 µM
same,TGI,UACC-62 melanoma,> 100 µM
same,TGI,HT29 colon,> 100 µM
same,TGI,DU-145 prostate,> 100 µM
same,TGI,MCF7 breast,> 100 µM
same,TGI,NCI-H522 lung,> 100 µM
same,TGI,SF-539 CNS,> 100 µM
same,TGI,HL-60(TB) leukemia,> 100 µM
same,TGI,K-562 leukemia,> 100 µM
same,TGI,HCC-2998 colon,> 100 µM
same,TGI,RPMI-8226 leukemia,> 100 µM
same,TGI,M14 melanoma,> 100 µM
same,TGI,SNB-19 CNS,> 100 µM
same,TGI,MDA-MB-435,> 100 µM
same,TGI,PC-3 prostate,> 100 µM
same,TGI,MALME-3M melanoma,> 100 µM
same,TGI,CAKI-1 renal,> 100 µM
same,TGI,MDA-MB-231 breast,> 100 µM
same,TGI,HS 578T breast,> 100 µM
same,TGI,IGROV1 ovarian,> 100 µM
same,TGI,HCT-15 colon,> 100 µM
same,TGI,SN12C renal,> 100 µM
same,TGI,T-47D breast,> 100 µM
Cc1cc(C)c2c(=N)c3ccccc3n(CCCCCCCCn3c4ccccc4c(=N)c4c(C)cc(C)nc43)c2n1,TGI,HOP-92 NSCLC,2.87 µM
same,TGI,SK-MEL-28 melanoma,3.02 µM
same,TGI,SNB-75 CNS,2.18 µM
same,TGI,ACHN renal,2.91 µM
same,TGI,OVCAR-5 ovarian,3.69 µM
same,TGI,OVCAR-3 ovarian,3.27 µM
same,TGI,SK-MEL-2 melanoma,3.03 µM
same,TGI,KM12 colon,1.42 µM
same,TGI,NCI-H226 lung,3.38 µM
same,TGI,MDA-N,2.78 µM
same,TGI,A498 renal,2.94 µM
same,TGI,SK-OV-3 ovarian,3.18 µM
same,TGI,UACC-257 melanoma,3.01 µM
same,TGI,HCT-116 colon,1.59 µM
same,TGI,EKVX NSCLC,2.91 µM
same,TGI,TK-10 renal,4.72 µM
same,TGI,786-0 renal,2.28 µM
same,TGI,SK-MEL-5 melanoma,3.23 µM
same,TGI,BT-549 breast,3.29 µM
same,TGI,LOX IMVI melanoma,2.61 µM
same,TGI,OVCAR-8 ovarian,3.05 µM
same,TGI,HT29 colon,1.16 µM
same,TGI,DU-145 prostate,3.07 µM
same,TGI,K-562 leukemia,> 100 µM
same,TGI,M14 melanoma,3.09 µM
same,TGI,SNB-19 CNS,1.85 µM
same,TGI,PC-3 prostate,2.86 µM
same,TGI,MALME-3M melanoma,3.11 µM
same,TGI,CAKI-1 renal,3.45 µM
same,TGI,UO-31 renal,2.81 µM
same,TGI,IGROV1 ovarian,2.71 µM
same,TGI,SN12C renal,2.94 µM
same,TGI,T-47D breast,3.23 µM
CC1=C(C)C(=O)OC(C(C)(O)C2(O)CC3OC34C3CC(O)C56OC5C=CC(=O)C6(C)C3CCC42C)C1 (stereo not drawn),TGI,HOP-92 NSCLC,12 µM
same,TGI,SK-MEL-28 melanoma,4.24 µM
same,TGI,SNB-75 CNS,20.3 µM
same,TGI,RXF 393 renal,6.68 µM
same,TGI,ACHN renal,2.45 µM
same,TGI,OVCAR-5 ovarian,10.4 µM
same,TGI,SF-295 CNS,15.2 µM
same,TGI,OVCAR-3 ovarian,6.23 µM
same,TGI,CCRF-CEM leukemia,> 22.2 µM
same,TGI,SK-MEL-2 melanoma,10.8 µM
same,TGI,OVCAR-4 ovarian,20.3 µM
same,TGI,KM12 colon,7.54 µM
same,TGI,NCI-H226 lung,12.9 µM
same,TGI,COLO 205 colon,> 29 µM
same,TGI,MDA-N,15.5 µM
same,TGI,A498 renal,7.81 µM
same,TGI,SF-268 CNS,7.96 µM
same,TGI,SK-OV-3 ovarian,14.2 µM
same,TGI,A549 NSCLC,15.5 µM
same,TGI,UACC-257 melanoma,4.7 µM
same,TGI,EKVX NSCLC,10.4 µM
same,TGI,HOP-62 NSCLC,35.4 µM
same,TGI,NCI-H460 lung,4.23 µM
same,TGI,TK-10 renal,7.43 µM
same,TGI,SK-MEL-5 melanoma,> 24.1 µM
same,TGI,BT-549 breast,3.11 µM
same,TGI,LOX IMVI melanoma,5.38 µM
same,TGI,NCI-H23 lung,8.64 µM
same,TGI,OVCAR-8 ovarian,6.67 µM
same,TGI,U251 CNS,7.34 µM
same,TGI,MOLT-4 leukemia,4.49 µM
same,TGI,UACC-62 melanoma,3.15 µM
same,TGI,HT29 colon,4.2 µM
same,TGI,DU-145 prostate,15.8 µM
same,TGI,MCF7 breast,> 39.3 µM
same,TGI,NCI-H522 lung,1.97 µM
same,TGI,SF-539 CNS,6.39 µM
same,TGI,K-562 leukemia,> 100 µM
same,TGI,HCC-2998 colon,2.73 µM
same,TGI,RPMI-8226 leukemia,5.34 µM
same,TGI,M14 melanoma,12.6 µM
same,TGI,SNB-19 CNS,19.9 µM
same,TGI,MDA-MB-435,4.62 µM
same,TGI,PC-3 prostate,14.2 µM
same,TGI,MALME-3M melanoma,3.53 µM
same,TGI,CAKI-1 renal,14.4 µM
same,TGI,MDA-MB-231 breast,13.1 µM
same,TGI,UO-31 renal,2.62 µM
same,TGI,HS 578T breast,16.3 µM
same,TGI,IGROV1 ovarian,6.09 µM
same,TGI,HCT-15 colon,3.85 µM
same,TGI,SN12C renal,14.4 µM
same,TGI,T-47D breast,> 43.3 µM
